Laboratory results reported in US10894784B2, “Heteroarylbenzimidazole compounds” (BAYER PHARMA AKTIENGESELLSCHAFT, priority 2015, dated 2021).
Like-named read-outs stand apart in the source and are kept apart here.

Biological target: TBK1 (Homo sapiens (Human), UniProt Q9UHD2)
Test: TBK1 low ATP kinase assay (in vitro assay 1)
Type: biochemical
[1] = in vitro assay 1, read-out: TBK1 low ATP kinase assay IC50

TBK1, sequence (Q9UHD2 whole entry): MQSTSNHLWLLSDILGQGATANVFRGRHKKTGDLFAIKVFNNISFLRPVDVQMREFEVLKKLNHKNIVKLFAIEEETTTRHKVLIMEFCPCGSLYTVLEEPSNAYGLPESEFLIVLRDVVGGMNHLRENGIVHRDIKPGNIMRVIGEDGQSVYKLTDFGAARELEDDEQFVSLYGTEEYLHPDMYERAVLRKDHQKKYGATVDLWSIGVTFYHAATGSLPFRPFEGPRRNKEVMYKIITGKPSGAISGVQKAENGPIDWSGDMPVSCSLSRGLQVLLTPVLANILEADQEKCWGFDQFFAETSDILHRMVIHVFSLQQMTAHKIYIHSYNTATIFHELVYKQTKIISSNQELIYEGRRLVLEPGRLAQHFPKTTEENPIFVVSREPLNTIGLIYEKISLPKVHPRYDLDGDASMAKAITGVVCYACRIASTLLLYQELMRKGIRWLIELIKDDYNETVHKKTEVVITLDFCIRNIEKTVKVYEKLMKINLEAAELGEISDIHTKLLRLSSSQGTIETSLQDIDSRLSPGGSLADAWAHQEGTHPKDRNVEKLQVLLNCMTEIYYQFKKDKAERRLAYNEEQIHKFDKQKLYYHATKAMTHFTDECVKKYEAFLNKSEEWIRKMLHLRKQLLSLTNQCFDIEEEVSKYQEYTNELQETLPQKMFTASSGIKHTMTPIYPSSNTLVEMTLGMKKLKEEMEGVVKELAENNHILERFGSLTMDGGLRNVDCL

IC50 [1] [nM]	IC50 (TBK1 low ATP kinase assay IC50, in vitro assay 1) [nM]	SMILES
460		Cc1noc(-c2ccc3nc(Nc4cc(CN5CCN(c6cccc(F)c6)CC5)ccn4)[nH]c3c2)n1 [Example 101.09, N-(4-{[4-(3-fluorophenyl)piperazin-1-yl]methyl}pyridin-2-yl)-6-(3-methyl-1,2,4-oxadiazol-5-yl)-1H-benzimidazol-2-amine]
227		CC(C)(C)OC(=O)N1CCN(Cc2ccnc(Nc3nc4ccc(-c5ccnc(N6CCCC6)n5)cc4[nH]3)c2)CC1 [Example 177.01, tert-butyl 4-{[2-({6-[2-(pyrrolidin-1-yl)pyrimidin-4-yl]-1H-benzimidazol-2-yl}amino)pyridin-4-yl]methyl}piperazine-1-carboxylate]
560		Cc1ccnc(N2CCN(Cc3ccnc(Nc4nc5ccc(-c6nc(C)no6)cc5[nH]4)c3)CC2)c1 [Example 101.30, 6-(3-methyl-1,2,4-oxadiazol-5-yl)-N-(4-{[4-(4-methylpyridin-2-yl)piperazin-1-yl]methyl}pyridin-2-yl)-1H-benzimidazol-2-amine]
9.35		Cc1cc(-c2ccc3nc(Nc4cc(C(C)N5CCN(C(=O)CC6CC6)CC5)ccn4)[nH]c3c2)ncn1 (racemic) [Example 30.02.04, (rac)-2-cyclopropyl-1-{4-[1-(2-{[6-(6-methylpyrimidin-4-yl)-1H-benzimidazol-2-yl]amino}pyridin-4-yl)ethyl]piperazin-1-yl}ethanone]
2		CC(c1ccnc(Nc2nc3ccc(-c4cc(N(C)C)ncn4)cc3[nH]2)c1)N1CCN(C(=O)C2CC2)CC1 (single isomer, unassigned) [Example 100.03, cyclopropyl(4-{(1R or 1S)-1-[2-({6-[6-(dimethylamino)pyrimidin-4-yl]-1H-benzimidazol-2-yl}amino)pyridin-4-yl]ethyl}piperazin-1-yl)methanone]
450		Cc1noc(C)c1-c1cc(-c2ccc3nc(Nc4cc(CN5CCN(C(=O)CC(F)(F)F)CC5)ccn4)[nH]c3c2)ncn1 [Example 92.02, 1-(4-{[2-({6-[6-(3,5-dimethyl-1,2-oxazol-4-yl)pyrimidin-4-yl]-1H-benzimidazol-2-yl}amino)pyridin-4-yl]methyl}piperazin-1-yl)-3,3,3-trifluoropropan-1-one]
0.943		CC(c1ccnc(Nc2nc3ccc(-c4cc(N5CC(C(F)(F)F)C5)ncn4)cc3[nH]2)c1)N1CCN(C(=O)CC(F)(F)F)CC1 (single isomer, unassigned) [Example 164.02, 3,3,3-trifluoro-1-{4-[(1R or 1S)-1-{2-[(6-{6-[3-(trifluoromethyl)azetidin-1-yl]pyrimidin-4-yl}-1H-benzimidazol-2-yl)amino]pyridin-4-yl}ethyl]piperazin-1-yl}propan-1-one]
18.9		COc1cncnc1-c1ccc2nc(Nc3cc(CN4CCN(C(=O)CC(F)(F)F)CC4)ccn3)[nH]c2c1 [Example 35.01.01, 3,3,3-trifluoro-1-{4-[(2-{[6-(5-methoxypyrimidin-4-yl)-1H-benzimidazol-2-yl]amino}pyridin-4-yl)methyl]piperazin-1-yl}propan-1-one]
497		Cc1noc(-c2ccc3nc(Nc4cc(CN5CCN(C(=O)C6CC6)CC5(C)C)ccn4)[nH]c3c2)n1 [Example 16.04.04, cyclopropyl{3,3-dimethyl-4-[(2-{[6-(3-methyl-1,2,4-oxadiazol-5-yl)-1H-benzimidazol-2-yl]amino}pyridin-4-yl)methyl]piperazin-1-yl}methanone]
1390		Cn1ccc(-c2ccc3nc(Nc4cc(CN5CCN(C(=O)C6CCC6)CC5)ccn4)[nH]c3c2)n1 [Example 40.04, cyclobutyl{4-[(2-{[6-(1-methyl-1H-pyrazol-3-yl)-1H-benzimidazol-2-yl]amino}pyridin-4-yl)methyl]piperazin-1-yl}methanone]
0.66		CC(c1ccnc(Nc2nc3ccc(-c4cnn(CC5CC5(F)F)c4)cc3[nH]2)c1)N1CCN(C(=O)C2CC2)CC1 (single isomer, unassigned) [Example 55.03.02, cyclopropyl{4-[(1R or 1S)-1-(2-{[6-(1-{[(1R or 1S)-2,2-difluorocyclopropyl]methyl}-1H-pyrazol-4-yl)-1H-benzimidazol-2-yl]amino}pyridin-4-yl)ethyl]piperazin-1-yl}methanone]
283		COc1ccncc1-c1ccc2nc(Nc3cc(CN4CCN(C(=O)CC5CC5)CC4)ccn3)[nH]c2c1 [Example 14.02, 2-cyclopropyl-1-{4-[(2-{[6-(4-methoxypyridin-3-yl)-1H-benzimidazol-2-yl]amino}pyridin-4-yl)methyl]piperazin-1-yl}ethanone]
2.85		CC(c1ccnc(Nc2nc3ccc(-c4cnn(CC5CCC5)c4)c(F)c3[nH]2)c1)N1CCN(C(=O)C2CC2)CC1 (single isomer, unassigned) [Example 171.03, (4-{(1R or 1S)-1-[2-({6-[1-(cyclobutylmethyl)-1H-pyrazol-4-yl]-7-fluoro-1H-benzimidazol-2-yl}amino)pyridin-4-yl]ethyl}piperazin-1-yl)(cyclopropyl)methanone]
160		Cc1noc(-c2ccc3nc(Nc4cc(CN5CCN(C(=O)c6cccs6)CC5)ccn4)[nH]c3c2)n1 [Example 101.24, {4-[(2-{[6-(3-methyl-1,2,4-oxadiazol-5-yl)-1H-benzimidazol-2-yl]amino}pyridin-4-yl)methyl]piperazin-1-yl}(thiophen-2-yl)methanone]
323		O=C(CC(F)(F)F)N1CCN(Cc2ccnc(Nc3nc4ccc(-c5cncnc5)cc4[nH]3)c2)CC1 [Example 45.01.01, 3,3,3-trifluoro-1-{4-[(2-{[6-(pyrimidin-5-yl)-1H-benzimidazol-2-yl]amino}pyridin-4-yl)methyl]piperazin-1-yl}propan-1-one]
277		COc1cnc(C)cc1-c1ccc2nc(Nc3cc(CN4CCN(C(=O)CC(F)(F)F)CC4)ccn3)[nH]c2c1 [Example 07.02, 3,3,3-trifluoro-1-{4-[(2-{[6-(5-methoxy-2-methylpyridin-4-yl)-1H-benzimidazol-2-yl]amino}pyridin-4-yl)methyl]piperazin-1-yl}propan-1-one]
270		O=C(CC(F)(F)F)N1CCN(Cc2ccnc(Nc3nc4ccc(-c5ncnc6sccc56)cc4[nH]3)c2)CC1 [Example 105.01, 3,3,3-trifluoro-1-{4-[(2-{[6-(thieno[2,3-d]pyrimidin-4-yl)-1H-benzimidazol-2-yl]amino}pyridin-4-yl)methyl]piperazin-1-yl}propan-1-one]
13.8		Cc1noc(-c2ccc3nc(Nc4cc(C(C)N5CCN(C(=O)C6CC6)CC5)ccn4)[nH]c3c2)n1 (single isomer, unassigned) [Example 16.06.03.A, cyclopropyl{4-[(1R or 1S)-1-(2-{[6-(3-methyl-1,2,4-oxadiazol-5-yl)-1H-benzimidazol-2-yl]amino}pyridin-4-yl)ethyl]piperazin-1-yl}methanone]
	1.8	CC(c1ccnc(Nc2nc3ccc(-c4cnn(CC5CC5)c4)cc3[nH]2)c1)N1CCN(C(=O)CC(F)(F)F)CC1 (single isomer, unassigned) [Example 39.02.02, 1-(4-{(1R or 1S)-1-[2-({6-[1-(cyclopropylmethyl)-1H-pyrazol-4-yl]-1H-benzimidazol-2-yl}amino)pyridin-4-yl]ethyl}piperazin-1-yl)-3,3,3-trifluoropropan-1-one]
680		Cc1noc(-c2ccc3nc(Nc4cc(CN5CCN(C=O)CC5)ccn4)[nH]c3c2)n1 [Example 101.01, 4-[(2-{[6-(3-methyl-1,2,4-oxadiazol-5-yl)-1H-benzimidazol-2-yl]amino}pyridin-4-yl)methyl]piperazine-1-carbaldehyde]
6.35		CC(c1ccnc(Nc2nc3ccc(-c4cc(OCC(F)(F)F)ncn4)cc3[nH]2)c1)N1CCN(C(=O)C2CC2(F)F)CC1 (single isomer, unassigned) [Example 119.05, ((1RS)-2,2-difluorocyclopropyl)(4-{(1R or 1S)-1-[2-({6-[6-(2,2,2-trifluoroethoxy)pyrimidin-4-yl]-1H-benzimidazol-2-yl}amino)pyridin-4-yl]ethyl}piperazin-1-yl)methanone]
3.44		CC(c1ccnc(Nc2nc3ccc(-c4ccncn4)cc3[nH]2)c1)N1CCN(C(=O)C2CCC2)CC1 (racemic) [Example 23.04.01, (rac)-cyclobutyl{4-[1-(2-{[6-(pyrimidin-4-yl)-1H-benzimidazol-2-yl]amino}pyridin-4-yl)ethyl]piperazin-1-yl}methanone]
19		CN(CC1CC1)c1cc(-c2ccc3nc(Nc4cc(CN5CCN(C(=O)CC(F)(F)F)CC5)ccn4)[nH]c3c2)ncn1 [Example 141.02, 1-[4-({2-[(6-{6-[(cyclopropylmethyl)(methyl)amino]pyrimidin-4-yl}-1H-benzimidazol-2-yl)amino]pyridin-4-yl}methyl)piperazin-1-yl]-3,3,3-trifluoropropan-1-one]
550		COc1ccncc1-c1ccc2nc(Nc3cc(CN4CCN(C(=O)C5CC5)CC4)ccn3)[nH]c2c1 [Example 14.03, cyclopropyl{4-[(2-{[6-(4-methoxypyridin-3-yl)-1H-benzimidazol-2-yl]amino}pyridin-4-yl)methyl]piperazin-1-yl}methanone]
860		CC(c1ccnc(Nc2nc3ccc(-c4cc(C(F)(F)F)nn4C)cc3[nH]2)c1)N1CCN(C(=O)CC(F)(F)F)CC1 (single isomer, unassigned) [Example 88.02, 3,3,3-trifluoro-1-(4-{(1R or 1S)-1-[2-({6-[1-methyl-3-(trifluoromethyl)-1H-pyrazol-5-yl]-1H-benzimidazol-2-yl}amino)pyridin-4-yl]ethyl}piperazin-1-yl)propan-1-one]

SMILES	IC50 [1] [nM]	IC50 (TBK1 low ATP kinase assay IC50, in vitro assay 1) [nM]
O=C(CC(F)(F)F)N1CCN(Cc2ccnc(Nc3nc4ccc(-c5cnn(CC6CC6)c5)cc4[nH]3)c2)CC1 [Example 39.01.02, 1-(4-{[2-({6-[1-(cyclopropylmethyl)-1H-pyrazol-4-yl]-1H-benzimidazol-2-yl}amino)pyridin-4-yl]methyl}piperazin-1-yl)-3,3,3-trifluoropropan-1-one]	5.89	
CC(C)Cc1noc(-c2ccc3nc(Nc4cc(CN5CCN(C(=O)CC(F)(F)F)CC5)ccn4)[nH]c3c2)n1 [Example 18.01, 3,3,3-trifluoro-1-(4-{[2-({6-[3-(2-methylpropyl)-1,2,4-oxadiazol-5-yl]-1H-benzimidazol-2-yl}amino)pyridin-4-yl]methyl}piperazin-1-yl)propan-1-one]	72.4	
